Measurements from patent publication US20020035061A1, “COMPOSITIONS AND METHODS FOR TREATING INFECTIONS USING CATIONIC PEPTIDES ALONE OR IN COMBINATION WITH ANTIBIOTICS” (priority 1996, published 2002).
Like-named read-outs stand apart in the source and are kept apart here.

What was measured:
E. cloacae = format: cell-based; settings: E. cloacae strain ECL007
E. coli = format: cell-based
E. faecalis = format: cell-based
E. faecium = format: cell-based
K. pneumoniae = format: cell-based
P. aeruginosa = format: cell-based
S. aureus = format: cell-based
S. maltophilia = format: cell-based
S. marcescens = format: cell-based
[1] = tested on: MSSA (Smith, ATCC # 19640); assay: In vivo efficacy, MSSA infection; set-up: species or system S. aureus; settings: formulation D, 60 min post-infection, end of eight day observation
A. calcoaceticus = format: cell-based
S. epidermidis = format: cell-based

Work on IKKWPWWPWRRK [MBI 11G2CN] yielded an MIC (E. cloacae) greater than 128 µg/mL, an MIC (E. coli; E. coli strain ECO003) of 16 µg/mL and an MIC (E. faecalis; E. faecalis strain EFS004) of 16 µg/mL. It also gave an MIC (E. faecium; E. faecium strain EFM002) of 4 µg/mL, an MIC (K. pneumoniae; K. pneumoniae strain KP002) of 128 µg/mL and an MIC (P. aeruginosa; P. aeruginosa strain PA004) greater than 128 µg/mL. It also gave an MIC (S. aureus; S. aureus strain SA009) of 2 µg/mL, an MIC (S. maltophilia; S. maltophilia strain SMA001) greater than 128 µg/mL and an MIC (S. marcescens; S. marcescens strain SMS004) greater than 128 µg/mL. For the same sequence, the “% Survival” value ([1]; 12 mg/kg ip) was 10%, the “% Survival” value ([1]; 18 mg/kg ip) was 0% and the “% Survival” value ([1]; 24 mg/kg ip) was 40%.
For ILKKFPWFPWRRK [MBI 11A6CN], the MIC (A. calcoaceticus; A. calcoaceticus strain AC002) was 2 µg/mL, the MIC (E. cloacae) was greater than 128 µg/mL and the MIC (E. coli; E. coli strain ECO005) was 16 µg/mL. For the same sequence, the MIC (E. faecalis; E. faecalis EFS004) was 64 µg/mL, the MIC (E. faecalis; E. faecalis strain EFS001) was 1 µg/mL and the MIC (E. faecalis; E. faecalis strain EFS008) was 8 µg/mL. It also gave an MIC (E. faecium; E. faecium EFM003) of 2 µg/mL, an MIC (K. pneumoniae; K. pneumoniae strain KP001) of 32 µg/mL and an MIC (P. aeruginosa; P. aeruginosa strain PA004) greater than 128 µg/mL. For the same sequence, the MIC (S. aureus; S. aureus SA016) was 2 µg/mL, the MIC (S. aureus; S. aureus strain SA014) was 4 µg/mL and the MIC (S. aureus; S. aureus strain SA093) was 0.5 µg/mL. It also gave an MIC (S. epidermidis; S. epidermidis strain SE010) of 4 µg/mL, an MIC (S. maltophilia; S. maltophilia strain SMA002) of 128 µg/mL and an MIC (S. marcescens; S. marcescens strain SMS003) greater than 128 µg/mL.
Sequence ILKKWAWWPWRRK [MBI 11C3CN] has an MIC (A. calcoaceticus; A. calcoaceticus strain AC002) of 4 µg/mL, an MIC (E. cloacae) greater than 128 µg/mL and an MIC (E. coli; E. coli strain ECO002) of 16 µg/mL. It also gave an MIC (E. faecalis; E. faecalis strain EFS002) of 32 µg/mL, an MIC (E. faecium; E. faecium strain EFM002) of 1 µg/mL and an MIC (K. pneumoniae; K. pneumoniae strain KP001) of 128 µg/mL. The MIC (P. aeruginosa; P. aeruginosa strain PA005) was greater than 128 µg/mL, the MIC (S. aureus; S. aureus strain SA005) was 2 µg/mL and the MIC (S. epidermidis; S. epidermidis strain SE002) was 2 µg/mL. For the same sequence, the MIC (S. maltophilia; S. maltophilia strain SMA002) was 64 µg/mL and the MIC (S. marcescens; S. marcescens strain SMS004) was greater than 128 µg/mL.
For ILKKWPWPWRRK [MBI 11A4CN], the MIC (A. calcoaceticus; A. calcoaceticus strain AC002) was 8 µg/mL, the MIC (E. cloacae) was greater than 128 µg/mL and the MIC (E. coli; E. coli strain ECO003) was 32 µg/mL. It also gave an MIC (E. faecalis; E. faecalis strain EFS002) of 64 µg/mL, an MIC (E. faecium; E. faecium strain EFM001) of 32 µg/mL and an MIC (K. pneumoniae; K. pneumoniae strain KP001) greater than 128 µg/mL. It also gave an MIC (P. aeruginosa; P. aeruginosa strain PA004) greater than 128 µg/mL, an MIC (S. aureus; S. aureus strain SA005) of 2 µg/mL and an MIC (S. epidermidis; S. epidermidis strain SE002) of 8 µg/mL. The MIC (S. maltophilia; S. maltophilia strain SMA002) was greater than 128 µg/mL and the MIC (S. marcescens; S. marcescens strain SMS004) was greater than 128 µg/mL.
ILKKWPWW PWKKK [MBI 11B10CN] showed an MIC (A. calcoaceticus; A. calcoaceticus strain AC002) of 2 µg/mL, an MIC (E. cloacae) greater than 128 µg/mL and an MIC (E. coli; E. coli strain ECO005) of 16 µg/mL. It also gave an MIC (E. faecalis; E. faecalis strain EFS001) of 8 µg/mL, an MIC (E. faecalis; E. faecalis strain EFS002) of 64 µg/mL and an MIC (E. faecalis; E. faecalis strain EFS008) of 64 µg/mL. It also gave an MIC (E. faecium; E. faecium strain EFM003) of 4 µg/mL, an MIC (K. pneumoniae; K. pneumoniae strain KP001) of 32 µg/mL and an MIC (P. aeruginosa; P. aeruginosa strain PA004) greater than 128 µg/mL. It also gave an MIC (S. aureus; S. aureus strain SA008) of 2 µg/mL, an MIC (S. aureus; S. aureus strain SA014) of 4 µg/mL and an MIC (S. aureus; S. aureus strain SA093) of 1 µg/mL. For the same sequence, the MIC (S. epidermidis; S. epidermidis strain SE010) was 4 µg/mL, the MIC (S. maltophilia; S. maltophilia strain SMA002) was 128 µg/mL and the MIC (S. marcescens; S. marcescens strain SMS003) was greater than 128 µg/mL.
ILKKWPWWAWRRK [MBI 11C4CN] showed an MIC (A. calcoaceticus; A. calcoaceticus strain AC002) of 4 µg/mL, an MIC (E. cloacae) greater than 128 µg/mL and an MIC (E. coli; E. coli strain ECO005) of 32 µg/mL. For the same sequence, the MIC (E. faecalis; E. faecalis strain EFS002) was 32 µg/mL, the MIC (E. faecium; E. faecium strain EFM003) was 2 µg/mL and the MIC (K. pneumoniae; K. pneumoniae strain KP001) was greater than 128 µg/mL. The MIC (P. aeruginosa; P. aeruginosa strain PA005) was greater than 128 µg/mL, the MIC (S. aureus; S. aureus strain SA009) was 4 µg/mL and the MIC (S. epidermidis; S. epidermidis strain SE002) was 4 µg/mL. It also gave an MIC (S. maltophilia; S. maltophilia strain SMA002) of 64 µg/mL and an MIC (S. marcescens; S. marcescens strain SMS004) greater than 128 µg/mL.
Sequence ILKKWPWWPRRK [MBI 11G6CN] has an MIC (A. calcoaceticus; A. calcoaceticus strain AC001) greater than 128 µg/mL, an MIC (E. cloacae) greater than 128 µg/mL and an MIC (E. coli; E. coli strain ECO002) of 32 µg/mL. The MIC (E. faecalis; E. faecalis strain EFS002) was 128 µg/mL, the MIC (E. faecium; E. faecium strain EFM003) was 4 µg/mL and the MIC (K. pneumoniae; K. pneumoniae strain KP001) was greater than 128 µg/mL. It also gave an MIC (P. aeruginosa; P. aeruginosa strain PA004) greater than 128 µg/mL, an MIC (S. aureus; S. aureus strain SA006) of 2 µg/mL and an MIC (S. epidermidis; S. epidermidis strain SE002) of 8 µg/mL. It also gave an MIC (S. maltophilia; S. maltophilia strain SMA001) greater than 128 µg/mL and an MIC (S. marcescens; S. marcescens strain SMS003) greater than 128 µg/mL.
Work on ILKKWPWWPWR [MBI 11G14CN] yielded an MIC (A. calcoaceticus; A. calcoaceticus strain AC002) of 8 µg/mL, an MIC (E. cloacae) greater than 128 µg/mL and an MIC (E. coli; E. coli strain ECO003) of 32 µg/mL. The MIC (E. faecalis; E. faecalis strain EFS002) was 32 µg/mL, the MIC (E. faecium; E. faecium strain EFM001) was 16 µg/mL and the MIC (K. pneumoniae; K. pneumoniae strain KP002) was 128 µg/mL. The MIC (P. aeruginosa; P. aeruginosa strain PA006) was greater than 128 µg/mL, the MIC (S. aureus; S. aureus strain SA013) was 0.5 µg/mL and the MIC (S. epidermidis; S. epidermidis strain SE002) was 8 µg/mL. For the same sequence, the MIC (S. maltophilia; S. maltophilia strain SMA002) was 128 µg/mL and the MIC (S. marcescens; S. marcescens strain SMS004) was greater than 128 µg/mL.
With ILKKWPWWPWRRIMILKKAGS [MBI 11D6CN] the MIC (A. calcoaceticus; A. calcoaceticus strain AC002) was 4 µg/mL, the MIC (E. cloacae) was greater than 32 µg/mL and the MIC (E. coli; E. coli strain ECO002) was 32 µg/mL. The MIC (E. faecalis; E. faecalis strain EFS002) was 4 µg/mL, the MIC (E. faecium; E. faecium strain EFM003) was 1 µg/mL and the MIC (K. pneumoniae; K. pneumoniae strain KP002) was greater than 64 µg/mL. The MIC (P. aeruginosa; P. aeruginosa strain PA024) was greater than 64 µg/mL, the MIC (S. aureus; S. aureus strain SA009) was 8 µg/mL and the MIC (S. epidermidis; S. epidermidis strain SE010) was 4 µg/mL. For the same sequence, the MIC (S. maltophilia; S. maltophilia strain SMA001) was greater than 64 µg/mL and the MIC (S. marcescens; S. marcescens strain SMS004) was greater than 64 µg/mL.
